Organism: Rattus norvegicus
Experiment: Open TG-GATES - Regimen: Daily Repeat
Format: toxicity, organism-based, Sprague-Dawley
Set-up: regimen Daily Repeat, gender Male, age 6 weeks
Conditions: in vivo, po, 30 mg/kg, […], route gavage, dose level Middle; for KIDNEY_L / KIDNEY_R / KIDNEY_TOTAL: tissue Kidney; for LIVER: tissue Liver; for A/G / ALP / ALT / AST / BUN / CRE / Ca / Cl / DBIL / GLC / IP / K / LDH / Na / PL / RALB / TBIL / TC / TG / TP / gamma-GTP: tissue Plasma

CCC1(c2ccccc2)C(=O)NC(=O)NC1=O [PHENOBARBITAL]
Lym (tissue Blood, time 28 day): 82.6%
MCH (tissue Blood, time 28 day): 19.5 pg
MCHC (tissue Blood, time 28 day): 33.6%
MCV (tissue Blood, time 28 day): 58 fL
Mono (tissue Blood, time 28 day): 5.2%
Neu (tissue Blood, time 28 day): 11.6%
PT (tissue Blood, time 28 day): 12.2 s
Plat (tissue Blood, time 28 day): 103 x10_4/uL
RBC (tissue Blood, time 28 day): 777.2 x10_4/ul
Ret (tissue Blood, time 28 day): 3%
WBC (tissue Blood, time 28 day): 150 x10_2/uL
KIDNEY_L (time 7 day): 1.1 g
KIDNEY_R (time 7 day): 1.1 g
KIDNEY_TOTAL (time 7 day): 2.2 g
KIDNEY_L (time 14 day): 1.2 g
KIDNEY_R (time 14 day): 1.2 g
KIDNEY_TOTAL (time 14 day): 2.3 g
KIDNEY_L (time 28 day): 1.3 g
KIDNEY_R (time 28 day): 1.3 g
KIDNEY_TOTAL (time 28 day): 2.7 g
LIVER (time 7 day): 14.7 g
LIVER (time 14 day): 15.9 g
LIVER (time 28 day): 18 g
A/G (time 7 day): 1.5
ALP (time 7 day): 888 IU/L
ALT (time 7 day): 29.8 IU/L
AST (time 7 day): 58.4 IU/L
BUN (time 7 day): 18.8 mg/dL
CRE (time 7 day): 0.6 mg/dL
Ca (time 7 day): 11 mg/dL
Cl (time 7 day): 106.4 meq/L
DBIL (time 7 day): 0.042 mg/dL
GLC (time 7 day): 204 mg/dL
IP (time 7 day): 8.8 mg/dL
K (time 7 day): 4.6 meq/L
LDH (time 7 day): 95 IU/L
Na (time 7 day): 140.8 meq/L
PL (time 7 day): 157 mg/dL
RALB (time 7 day): 3.6 g/dL
TBIL (time 7 day): 0.4 mg/dL
TC (time 7 day): 85 mg/dL
TG (time 7 day): 115.2 mg/dL
TP (time 7 day): 6 g/dL
gamma-GTP (time 7 day): 1.2 IU/L
A/G (time 14 day): 1.4
ALP (time 14 day): 718.2 IU/L
ALT (time 14 day): 27.6 IU/L
AST (time 14 day): 61.8 IU/L
BUN (time 14 day): 19.6 mg/dL
CRE (time 14 day): 0.6 mg/dL
Ca (time 14 day): 10.9 mg/dL
Cl (time 14 day): 107 meq/L
DBIL (time 14 day): 0.008 mg/dL
GLC (time 14 day): 205.8 mg/dL
IP (time 14 day): 8.5 mg/dL
K (time 14 day): 4.2 meq/L
LDH (time 14 day): 84.6 IU/L
Na (time 14 day): 142 meq/L
PL (time 14 day): 148.4 mg/dL
RALB (time 14 day): 3.8 g/dL
TBIL (time 14 day): 0.3 mg/dL
TC (time 14 day): 79.2 mg/dL
TG (time 14 day): 116.2 mg/dL
TP (time 14 day): 6.5 g/dL
gamma-GTP (time 14 day): 1 IU/L
A/G (time 28 day): 1.5
ALP (time 28 day): 631.8 IU/L
ALT (time 28 day): 32.2 IU/L
AST (time 28 day): 58.6 IU/L
BUN (time 28 day): 20.6 mg/dL
CRE (time 28 day): 0.4 mg/dL
Ca (time 28 day): 10.4 mg/dL
Cl (time 28 day): 108 meq/L
DBIL (time 28 day): 0.03 mg/dL
GLC (time 28 day): 194.4 mg/dL
IP (time 28 day): 7.5 mg/dL
K (time 28 day): 4.8 meq/L
LDH (time 28 day): 70 IU/L
Na (time 28 day): 139.6 meq/L
PL (time 28 day): 143.4 mg/dL
RALB (time 28 day): 3.8 g/dL
TBIL (time 28 day): 0.4 mg/dL
TC (time 28 day): 76.8 mg/dL
TG (time 28 day): 88.8 mg/dL
TP (time 28 day): 6.3 g/dL
gamma-GTP (time 28 day): 2.6 IU/L

Source: ChEMBL document CHEMBL3885861, “Open TG-GATES”
